In patent US10639251B2, “Method for inhibiting or masking fishy odours” (Symrise AG, priority 2015, dated 2020):

What was measured:
hTAAR5 = target: T1, hTAAR5 (Homo sapiens, UniProt O14804); details: agonist; cited from earlier work
T1 construct: expressed in transfected cells; host or cells: HANA3A cells
T1 sequence (O14804 1-337): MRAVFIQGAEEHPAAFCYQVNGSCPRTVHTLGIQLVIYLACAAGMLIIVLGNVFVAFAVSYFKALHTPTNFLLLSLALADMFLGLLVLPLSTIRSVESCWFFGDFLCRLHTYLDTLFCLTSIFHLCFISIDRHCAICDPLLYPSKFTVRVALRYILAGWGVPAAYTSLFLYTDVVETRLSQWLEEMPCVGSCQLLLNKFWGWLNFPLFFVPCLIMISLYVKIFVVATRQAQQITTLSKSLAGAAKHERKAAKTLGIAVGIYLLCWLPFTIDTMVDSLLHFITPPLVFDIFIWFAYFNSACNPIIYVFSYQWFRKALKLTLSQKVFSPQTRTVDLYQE

hOR51E1 = target: T2, hOR51E1 (Homo sapiens, UniProt Q8TCB6); test: Cre-luciferase reporter gene assay, concentration-response curve of nonanoic acid on hOR51E1 (Dual-Glo Luciferase, transfected HANA3A cells); type: cell-based; parameters: expressed in transfected cells; host or cells: HANA3A; details: agonist alone; human olfactory receptor hOR51E1 recombinantly expressed in HANA3A cells with RTP1S, G-protein αolf, M3 muscarinic acetylcholine receptor, pGL4-luciferase and pRL-TK-Renilla reporters; 4 h at 37° C.; Hill fit; n=3 in duplicate; FIG. 4B left
T2 sequence (Q8TCB6 1-318): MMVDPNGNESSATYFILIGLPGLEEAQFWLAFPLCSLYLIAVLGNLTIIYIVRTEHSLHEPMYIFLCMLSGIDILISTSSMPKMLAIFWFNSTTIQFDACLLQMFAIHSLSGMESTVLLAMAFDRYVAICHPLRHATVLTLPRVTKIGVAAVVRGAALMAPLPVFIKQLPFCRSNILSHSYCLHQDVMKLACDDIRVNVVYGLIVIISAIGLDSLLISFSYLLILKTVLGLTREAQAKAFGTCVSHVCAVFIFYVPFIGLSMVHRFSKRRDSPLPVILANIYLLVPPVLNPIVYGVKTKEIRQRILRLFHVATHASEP
Description: (§1) In order to identify suitable antagonist for TMA the protocol of Zhuang and Matsunami for measuring receptor activity with the Dual-Glo Luciferase Assay System (Promega) was adapted [see Nat. Protoc. 3(9), p. 1402-1413 (2008)]. HANA3A cells were maintained under standard conditions in DMEM supplemented with 10% FBS and 100 units/ml penicillin and streptomycin at 37° C. Cells (approximately 15,000 cells/well) were plated on poly-D-lysine-coated 96-well plates (NUNC) and transfected after 24 h with the FuGENE® HD (Promega) transfection reagent according to the manufacturer's protocol. […] Expression rates of Cre-luciferase were monitored by luminescent enzymatic reactivity. Thus, luminescence signals correlate with receptor activation. […]
(§2) For statistical analysis of Cre-luciferase assay data, two-tailed unpaired Student's t-test. […] Sensory data was analyzed using non-parametric statistical tests. The overall difference between the group thresholds was determined by a Kruskal-Wallis test, followed by a Dunn post-hoc test for the respective pairwise comparisons.
(§3) Another experiment was directed to figure out whether the Timberol® block is exclusively mediated by hTAAR5. […] Then the impact of Timberol® on MOR42-3- and hOR51E1-mediated responses to the respective agonists was tested with concentrations below and above the calculated EC50 values. […]

MOR42-3 = target: T3, MOR42-3 (Mus musculus, UniProt E9PX47); test: Cre-luciferase reporter gene assay, concentration-response curve of azelaic acid on MOR42-3 (Dual-Glo Luciferase, transfected HANA3A cells); type: cell-based; details: agonist alone; murine olfactory receptor MOR42-3 recombinantly expressed in HANA3A cells with RTP1S, G-protein αolf, pGL4-luciferase and pRL-TK-Renilla reporters; 4 h at 37° C.; Hill fit; n=3 in duplicate; FIG. 4A left
T3 construct: CRE-luciferase readout normalized to Renilla
T3 sequence (E9PX47 1-334): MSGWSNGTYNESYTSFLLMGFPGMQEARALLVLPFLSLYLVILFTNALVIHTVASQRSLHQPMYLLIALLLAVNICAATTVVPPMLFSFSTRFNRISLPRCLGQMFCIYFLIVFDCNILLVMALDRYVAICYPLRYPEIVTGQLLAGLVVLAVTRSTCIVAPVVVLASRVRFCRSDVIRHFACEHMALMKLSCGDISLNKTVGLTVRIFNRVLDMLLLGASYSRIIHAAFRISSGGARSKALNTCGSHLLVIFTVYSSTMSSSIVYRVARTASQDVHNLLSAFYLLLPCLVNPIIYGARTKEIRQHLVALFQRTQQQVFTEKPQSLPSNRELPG
Description: as §1, §2, §3

humans = details: in vivo; cited from earlier work

## CCN(C)C [DMEA, dimethylethylamine]
hTAAR5
  activation of hTAAR5: less efficacy and potency

## CCCCCCCCC(=O)O [Nonanoic acid, nonanoic acid]
hOR51E1
  EC50: 103 ± 23.1 µM

## O=C(O)CCCCCCCC(=O)O [Azelaic acid, azelaic acid]
MOR42-3
  EC50: 2.67 ± 0.47 µM

## CN [methylamine]
humans
  detection threshold in humans: 180 ppm
